Values quoted from earlier work, collected in patent US20110189710A1, “TREATMENT OF POMPE DISEASE WITH […] PHARMACOLOGICAL CHAPERONES AND MONITORING TREATMENT USING SURROGATE MARkERS” (AMICUS THERAPEUTICS, INC., priority 2008, published 2011).

Columns and labels:
[1] = tested on: α-Gal A (R301Q or Q279E) in Fabry patient lymphoblasts; conditions: lymphoblasts from Fabry patients with R301Q or Q279E mutations; cited from earlier work
[2] = biological target: T1, human mutant α-Gal A (R301Q) (Homo sapiens, UniProt P06280, R301Q); conditions: neutral pH; cited from earlier work
T1 sequence (P06280 32-429 R301Q): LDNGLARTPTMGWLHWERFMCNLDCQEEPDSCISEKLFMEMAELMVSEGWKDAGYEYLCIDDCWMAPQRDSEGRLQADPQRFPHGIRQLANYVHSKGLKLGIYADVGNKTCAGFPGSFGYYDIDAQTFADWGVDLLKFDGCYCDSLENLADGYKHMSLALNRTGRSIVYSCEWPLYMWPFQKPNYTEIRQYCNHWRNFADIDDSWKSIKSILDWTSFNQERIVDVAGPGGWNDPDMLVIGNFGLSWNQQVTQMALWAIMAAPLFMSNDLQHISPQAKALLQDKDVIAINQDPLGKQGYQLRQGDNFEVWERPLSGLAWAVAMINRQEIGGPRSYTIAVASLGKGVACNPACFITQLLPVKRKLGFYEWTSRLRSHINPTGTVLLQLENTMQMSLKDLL

mutant (R301Q) α-Gal A = biological target: T2, mutant (R301Q) α-Gal A (Homo sapiens, UniProt P06280, R301Q); conditions: oral administration; transgenic mice overexpressing mutant (R301Q) α-Gal A; cited from earlier work
T2 construct: host or cells: transgenic mice
T2 sequence (P06280 32-429 R301Q): T1 sequence (P06280 32-429 R301Q)

Structure (SMILES): OC[C@H]1NC[C@H](O)[C@@H](O)[C@H]1O [DGJ, 1-deoxygalactonojirimycin]
- Mutant enzyme activity in lymphoblasts [1]: enhanced the mutant enzyme activity
- In vitro stability of mutant enzyme [2]: effectively increased in vitro stability
- Enzyme activity in major organs (mutant (R301Q) α-Gal A): substantially elevated the enzyme activity
